We go through 17 molecules from patent publication US9023858B2, “Substituted pyrido[2,3-d]pyrimidines as delta-5-desaturase inhibitors” (Takeda Pharmaceutical Company Limited, priority 2010, dated 2015).

In data set [1] the target is T1, delta-5-desaturase (Rattus norvegicus, UniProt Q920R3).
T1 construct: a rat liver microsome fraction (10 μl) diluted to 3 mg/ml with a microsome buffer; from tissue; host or cells: rat liver microsome fraction
The data set can be described thus: Inhibitory activity on binding of [3H]-labelled Reference Example 1 ligand to delta-5-desaturase (rat liver microsome fraction). The following applies: test compound 10 μM; for inhibition at 10 µM: 3 nM tritiated ligand of Reference Example 1, read-out: Binding inhibitory activity against compound bind to delta-5-desaturase Binding inhibition rate (%) at 10 μM. As to the method:
Inhibitory Activity on Binding of N-[2-({4-oxo-3-[4-(2,2,2-trifluoroethoxy)[2,6-^3H2]phenyl]-3,4-dihydrothieno[3,4-d]pyrimidin-2-yl}sulfanyl)ethyl]acetamide (Reference Example 1) to delta-5-desaturase)
All tests were performed at room temperature at 200 μL/well. A rat liver microsome fraction (30 μg/well) was preincubated with a test compound at a final concentration of 10 μM for 15 min in an assay buffer (10 mM Tris-HCl (pH 7.5), 100 mM KCl, 10 mM NaF, 3 mM MgCl2, 0.005% Tween20 and 1 mM GSH). N-[2-({4-oxo-3-[4-(2,2,2-trifluoroethoxy) [2,6-^3H2]phenyl]-3,4-dihydrothieno[3,4-d]pyrimidin-2-yl}sulfanyl)ethyl]acetamide was added to a final concentration of 3 nM and the mixture was incubated for 150 min. For Bound/Free separation, the membrane fraction was added on a GF/C glass filter using a cell harvester. The GF/C glass filter was washed 5 times with 300 μl of ice-cooled assay buffer (without 0.005% Tween) to separate the ligand bound to delta-5-desaturase. 50 μl of MicroScinti 0 was added, and the radioactivity on the filter was measured by TopCount. To evaluate non-specific binding, 10 μM N-[2-({4-oxo-3-[4-(2,2,2-trifluoroethoxy)phenyl]-3,4-dihydrothieno[3,4-d]pyrimidin-2-yl}sulfanyl)ethyl]acetamide was used. The inhibitory rate (%) of the test compound (10 μM) on the binding of N-[2-({4-oxo-3-[4-(2,2,2-trifluoroethoxy) [2,6-^3H2]phenyl]-3,4-dihydrothieno[3,4-d]pyrimidin-2-yl}sulfanyl)ethyl]acetamide to delta-5-desaturase was determined.

The target of data set [2] is T2, delta-5-desaturase (Homo sapiens, UniProt O60427).
T2 construct: endogenous in cells; host or cells: HepG2
T2 sequence (O60427 whole entry): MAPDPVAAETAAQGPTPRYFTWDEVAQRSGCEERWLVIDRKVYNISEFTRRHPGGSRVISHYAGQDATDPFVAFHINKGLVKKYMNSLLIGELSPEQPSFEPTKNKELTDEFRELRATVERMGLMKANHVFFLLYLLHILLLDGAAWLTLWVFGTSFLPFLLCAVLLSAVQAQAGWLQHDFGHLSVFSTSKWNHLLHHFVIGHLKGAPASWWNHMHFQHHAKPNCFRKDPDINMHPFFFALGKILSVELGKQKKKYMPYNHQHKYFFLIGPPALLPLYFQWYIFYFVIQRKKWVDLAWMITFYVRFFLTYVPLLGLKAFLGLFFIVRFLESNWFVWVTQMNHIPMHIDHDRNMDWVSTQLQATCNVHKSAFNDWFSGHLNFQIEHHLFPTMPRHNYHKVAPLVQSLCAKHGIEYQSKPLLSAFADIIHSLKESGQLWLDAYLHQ
Put plainly: Delta-5-desaturase inhibitory activity using HepG2 cell. Format: cell-based. As to conditions: test compound 1 μM. As to the method: Delta-5-Desaturase Inhibitory Activity Using HepG2 Cell
HepG2 was plated on a 96-well plate at 1×10^5 cells/well, and cultured overnight in DMEM (Dulbecco's modified Eagle medium) containing 10% FBS (fetal bovine serum). After washing (200 μL×2) with PBS (phosphate buffered saline), 40 μL of a reaction medium (DMEM, penicillin/streptomycin, 0.3% BSA) containing the test compound was added, and the mixture was preincubated in a CO2 incubator at 37° C. for 30 min. The reaction was started by adding a reaction medium (20 μL) containing 0.1 μCi [^14C]Eicosatrienoic acid, and the mixture was incubated in a CO2 incubator at 37° C. Incubation was performed for 3 hr, the cells were washed twice with 200 μL of PBS, detached with 50 μL of trypsin-EDTA and placed on a 96-deep well block. Furthermore, 20 μL of 2.5N NaOH was added, the plate was sealed and incubated overnight at 55° C. to allow saponification. The fatty acid extraction included acidifying with 10 μL of formic acid, adding chloroform:methanol (1:4), stirring, and further adding 200 μL of pure water to separate into two layers. The operation after development with TLC followed the method of detection system using TLC in a system using a rat liver microsome. A delta-5-desaturase inhibitory rate (%) of 1 μM test compound was determined.

Data set [3] deals with T1, delta-5-desaturase. Put plainly: Delta-5-desaturase inhibitory activity using rat liver microsome. The following applies: test compound 10 μM. Type of data set: biochemical. As to the method: Delta-5-Desaturase Inhibitory Activity Using Rat Liver Microsome
The inhibitory activity of the test compound on delta-5-desaturase was measured by the method described below. To a solution of the test compound in DMSO prepared in advance was secondarily diluted with a buffer (300 mM NaH2PO4 [pH 7.4], 450 mM KCl, 30 mM NaF, 9 mM MgCl2, 4.5 mM glutathione [reduced form], 0.3% BSA [fatty acid free, SIGMA]) to give an assay buffer. The assay buffer (10 μl) was dispensed to a polypropylene deep 96-well block, and a rat liver microsome fraction (10 μl) diluted to 3 mg/ml with a microsome buffer (10 mM Tris-HCl [pH 7.4], 1 mM EDTA, 250 mM sucrose) was added. The enzyme reaction was started by adding 9 mM NADH, 9 mM ATP, 0.9 mM CoA, 10 μCi/ml (8E,11E,14E)-(1-^14C)eicosa-8,11,14-trienoic acid (PerkinElmer Inc.) (10 μl). The enzyme reaction was performed for 120 min at room temperature, and discontinued by the addition of 10 μl of 2.5M NaOH. After discontinuation of the reaction, the plate was sealed and incubated overnight at 55° C. to allow saponification. The fatty acid was extracted with solvent based on the Bligh & Dyer method described in Can. J. Biochem. Physiol., vol. 37, page 911 (1959) by adding formic acid:methanol:chloroform (1:6:3) (200 μl), maintaining the single layer state, sufficiently stirring the mixture and adding pure water (120 μl) for separation into two layers. The lower chloroform layer (10 μl) was spotted on a reversed-phase TLC plate (RP-18, 1154230001, Merck Japan, Ltd.), developed with acetonitrile:pure water:acetic acid (95:4.5:0.5), and the dried TLC plate was transcribed on Imaging Plate (Fuji Photo Film Co., Ltd.) for 5 hr or longer. The detection was performed using BAS-5000 (Fuji Photo Film Co., Ltd.), and the obtained spot image was numerically converted by Multi Gauge Ver2.3 (Fuji Photo Film Co., Ltd.) and a delta-5-desaturase inhibitory rate (%) of 10 μM test compound was determined.
(Liver microsomes are vesicles of endoplasmic reticulum, rich in cytochrome P450 enzymes.)

Structures can show the parent of a compound that is named as a salt.

T1 sequence (Q920R3 whole entry): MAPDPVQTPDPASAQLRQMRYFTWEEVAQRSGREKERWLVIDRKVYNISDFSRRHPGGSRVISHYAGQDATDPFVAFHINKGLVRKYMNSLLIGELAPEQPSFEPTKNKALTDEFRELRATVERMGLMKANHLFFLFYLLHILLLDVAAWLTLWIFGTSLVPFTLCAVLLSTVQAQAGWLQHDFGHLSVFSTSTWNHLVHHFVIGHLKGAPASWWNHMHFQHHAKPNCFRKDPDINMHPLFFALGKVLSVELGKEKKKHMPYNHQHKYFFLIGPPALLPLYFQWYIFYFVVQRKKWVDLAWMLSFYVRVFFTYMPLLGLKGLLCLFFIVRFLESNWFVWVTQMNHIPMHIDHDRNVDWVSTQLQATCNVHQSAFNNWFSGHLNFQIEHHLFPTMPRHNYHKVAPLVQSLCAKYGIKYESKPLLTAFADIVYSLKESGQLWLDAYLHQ

As for `COc1ccc2c(=O)n(-c3ccc(OCC(F)(F)F)cc3)c(SC)nc2n1` [Example 2, 7-methoxy-2-(methylsulfanyl)-3-[4-(2,2,2-trifluoroethoxy)phenyl]pyrido[2,3-d]pyrimidin-4(3H)-one], the inhibition at 10 µM on delta-5-desaturase [1] came out at 94%; against delta-5-desaturase [3], 102%. The inhibition at 1 µM on delta-5-desaturase [2] amounted to 107%.
Regarding `CCCSc1nc2nc(OC)ccc2c(=O)n1-c1ccc(OCC(F)(F)F)cc1` [Example 3, 7-methoxy-2-(propylsulfanyl)-3-[4-(2,2,2-trifluoroethoxy)phenyl]pyrido[2,3-d]pyrimidin-4(3H)-one], the inhibition at 10 µM came out at 97% at delta-5-desaturase [1] and 102% against delta-5-desaturase [3].
Take `COc1ccc2c(=O)n(-c3ccc(OCC(F)(F)F)cc3)c(OCC(F)(F)F)nc2n1` [Example 5, 7-methoxy-2-(2,2,2-trifluoroethoxy)-3-[4-(2,2,2-trifluoroethoxy)phenyl]pyrido[2,3-d]pyrimidin-4(3H)-one]: the results for the inhibition at 10 µM at delta-5-desaturase [1] and against delta-5-desaturase [3] were 93% and 101%, respectively. In addition, at delta-5-desaturase [2], the inhibition at 1 µM amounted to 95%.
On the same counts, the results for `CCSc1nc2[nH]c(=O)ccc2c(=O)n1-c1ccc(OCC(F)(F)F)cc1` [Example 6, 2-(ethylsulfanyl)-3-[4-(2,2,2-trifluoroethoxy)phenyl]pyrido[2,3-d]pyrimidine-4,7(3H,8H)-dione] are 97%, 99% and 101%.
Turning to `CCSc1nc2[nH]c(=O)ccc2c(=O)n1-c1ccc(OCC(F)(F)F)cc1` [Example 7, 2-(ethylsulfanyl)-3-[4-(2,2,2-trifluoroethoxy)phenyl]pyrido[2,3-d]pyrimidine-4,7(3H,8H)-dione sodium salt], the “Binding inhibitory activity against compound bind to delta-5-desaturase Binding inhibition rate (%) at 10 μM” value on delta-5-desaturase [1] (3 nM tritiated ligand of Reference Example 1, sodium salt) was 96%. Moreover, the “delta-5-desaturase inhibitory activity (at liver microsome) Inhibitory activity (%) at 10 μM” value at delta-5-desaturase [3] (sodium salt, 10 µM) is reported as 98%.
Consider `CCSc1nc2c(ccc(=O)n2C)c(=O)n1-c1ccc(OCC(F)(F)F)cc1` [Example 8, 2-(ethylsulfanyl)-8-methyl-3-[4-(2,2,2-trifluoroethoxy)phenyl]pyrido[2,3-d]pyrimidine-4,7(3H,8H)-dione], for which the inhibition at 10 µM was 96% at delta-5-desaturase [1] and 99% on delta-5-desaturase [3]. For the same molecule, the inhibition at 1 µM against delta-5-desaturase [2] was found to be 103%.
The corresponding values for `CCOc1nc2[nH]c(=O)ccc2c(=O)n1-c1ccc(OCC(F)(F)F)cc1` [Example 9, 2-ethoxy-3-[4-(2,2,2-trifluoroethoxy)phenyl]pyrido[2,3-d]pyrimidine-4,7(3H,8H)-dione] are 96%, 99% and 97%.
Take `O=c1ccc2c(=O)n(-c3ccc(OCC(F)(F)F)cc3)c(OCC(F)(F)F)nc2[nH]1` [Example 11, 2-(2,2,2-trifluoroethoxy)-3-[4-(2,2,2-trifluoroethoxy)phenyl]pyrido[2,3-d]pyrimidine-4,7(3H,8H)-dione]: the figures for the inhibition at 10 µM on delta-5-desaturase [1] and at delta-5-desaturase [3] were 95% and 100%, respectively. Moreover, the inhibition at 1 µM at delta-5-desaturase [2] stood at 98%.
For `CS(=O)(=O)CCCOc1nc2[nH]c(=O)ccc2c(=O)n1-c1ccc(OCC(F)(F)F)cc1` [Example 13, 2-[3-(methylsulfonyl)propoxy]-3-[4-(2,2,2-trifluoroethoxy)phenyl]pyrido[2,3-d]pyrimidine-4,7(3H,8H)-dione], the inhibition at 10 µM at delta-5-desaturase [1] was found to be 89%; against delta-5-desaturase [3], 97%. The inhibition at 1 µM at delta-5-desaturase [2] is 88%.
`COCC(F)(F)COc1nc2[nH]c(=O)ccc2c(=O)n1-c1ccc(OCC(F)(F)F)cc1` [Example 14, 2-(2,2-difluoro-3-methoxypropoxy)-3-[4-(2,2,2-trifluoroethoxy)phenyl]pyrido[2,3-d]pyrimidine-4,7(3H,8H)-dione]: at delta-5-desaturase [2], the inhibition at 1 µM was 103%. Further, the inhibition at 10 µM at delta-5-desaturase [3] is 103%.
On to `O=c1ccc2c(=O)n(-c3ccc(OCC(F)(F)F)cc3)c(OCC(F)(F)CO)nc2[nH]1` [Example 17, 2-(2,2-difluoro-3-hydroxypropoxy)-3-[4-(2,2,2-trifluoroethoxy)phenyl]pyrido[2,3-d]pyrimidine-4,7(3H,8H)-dione], for which the values for the inhibition at 10 µM on delta-5-desaturase [1] and against delta-5-desaturase [3] were 99% and 105%, respectively. Also, the inhibition at 1 µM against delta-5-desaturase [2] is 103%.
Turning to `COc1nc2[nH]c(=O)ccc2c(=O)n1-c1ccc(OCC(F)(F)F)cc1` [Example 18, 2-methoxy-3-[4-(2,2,2-trifluoroethoxy)phenyl]pyrido[2,3-d]pyrimidine-4,7(3H,8H)-dione], the inhibition at 10 µM on delta-5-desaturase [1] was 84%; on delta-5-desaturase [3] it was 92%. Further, the inhibition at 1 µM on delta-5-desaturase [2] was 95%.
Consider `CCNc1nc2[nH]c(=O)ccc2c(=O)n1-c1ccc(OCC(F)(F)F)cc1` [Example 19, 2-(ethylamino)-3-[4-(2,2,2-trifluoroethoxy)phenyl]pyrido[2,3-d]pyrimidine-4,7(3H,8H)-dione], for which the inhibition at 10 µM at delta-5-desaturase [1] was determined as 85%; against delta-5-desaturase [3], 90%.
On to `CC(C)Oc1nc2[nH]c(=O)ccc2c(=O)n1-c1ccc(OCC(F)(F)F)cc1` [Example 20, 2-(1-methylethoxy)-3-[4-(2,2,2-trifluoroethoxy)phenyl]pyrido[2,3-d]pyrimidine-4,7(3H,8H)-dione], for which the figures for the inhibition at 10 µM on delta-5-desaturase [1] and on delta-5-desaturase [3] were 97% and 104%, respectively. Further, at delta-5-desaturase [2], the inhibition at 1 µM worked out at 97%.
Regarding `CSc1nc2c(c(=O)n1-c1ccc(OCC(F)(F)F)cc1)CCC(=O)N2` [Example 21, 2-(methylsulfanyl)-3-[4-(2,2,2-trifluoroethoxy)phenyl]-5,6-dihydropyrido[2,3-d]pyrimidine-4,7(3H,8H)-dione], the inhibition at 10 µM at delta-5-desaturase [1] came to 93%; against delta-5-desaturase [3] it was 97%.
Take `CCSc1nc2c(c(=O)n1-c1ccc(OCC(F)(F)F)cc1)CCC(=O)N2` [Example 24, 2-(ethylsulfanyl)-3-[4-(2,2,2-trifluoroethoxy)phenyl]-5,6-dihydropyrido[2,3-d]pyrimidine-4,7(3H,8H)-dione]: the inhibition at 10 µM turned out to be 95% at delta-5-desaturase [1] and 101% at delta-5-desaturase [3]. On delta-5-desaturase [2], the inhibition at 1 µM turned out to be 109%.
Regarding `CCCc1nc2c(c(=O)n1-c1ccc(OCC(F)(F)F)cc1)CCC(=O)N2` [Example 40, 2-propyl-3-[4-(2,2,2-trifluoroethoxy)phenyl]-5,6-dihydropyrido[2,3-d]pyrimidine-4,7(3H,8H)-dione], the inhibition at 10 µM on delta-5-desaturase [1] is 89%. The inhibition at 1 µM against delta-5-desaturase [2] came out at 92%.
